IC50 data for 30 molecules are collected here from patent US20230312587A1, “PTERIDINONE COMPOUNDS AND USES THEREOF” (Vertex Pharmaceutical Incorporated, priority 2018, published 2023).

For the assay, the system named is β-catenin-TCF-mediated reporter transcription activity in Colo 205 cells. In words: Colo 205 reporter assay (TCF/LEF luciferase). It counts as cell-based. The conditions noted are these: Homo sapiens, COLO 205, 5 h, Colo 205 TCF/LEF luciferase reporter, five hours after addition of compound; read-out: TCF reporter Colo205 IC50. In outline:
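Luciferase signal from a TCF/LEF-driven reporter, stably integrated in Colo 205 colon cancer cells, was measured 5 h after compound addition.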

Molecules are shown by their SMILES. pIC50: −log10 of the molar value.

As to `Cc1nc(N[C@H]2C[C@H](Oc3cnc(C(F)(F)F)nc3)C2)nc2c1N(C)C(=O)[C@H](C)N2C` [Compound 334, (7S)-4,5,7,8-tetramethyl-2-((trans-3-((2-(trifluoromethyl)pyrimidin-5-yl)oxy)cyclobutyl)amino)-7,8-dihydropteridin-6(5H)-one], the pIC50 (in general, −log10 of the IC50, conventionally taken in molar units) is 6.00 to 6.52.
For the molecule `Cc1nc(N[C@H]2C[C@@H](Sc3ccc(OC(F)(F)F)cc3)C2)nc2c1NC(=O)[C@H](C)N2C` [Compound 336, (7S)-4,7,8-trimethyl-2-((cis-3-((4-(trifluoromethoxy)phenyl)thio)cyclobutyl)amino)-7,8-dihydropteridin-6(5H)-one], the pIC50 was 6.00 to 6.52.
Turning to `Cc1nc(N[C@H]2C[C@H](Oc3ccnc(C(F)(F)F)c3)C2)nc2c1N(C)C(=O)[C@H](C)N2C` [Compound 337, (7S)-4,5,7,8-tetramethyl-2-((trans-3-((2-(trifluoromethyl)pyridin-4-yl)oxy)cyclobutyl)amino)-7,8-dihydropteridin-6(5H)-one], the negative logarithm of the IC50 (pIC50) is 6.00 to 6.52.
As for `Cc1ccc(O[C@H]2C[C@H](Nc3nc(C)c4c(n3)N(C)[C@@H](C)C(=O)N4C)C2)cc1` [Compound 338, (7S)-4,5,7,8-tetramethyl-2-((trans-3-(p-tolyloxy)cyclobutyl)amino)-7,8-dihydropteridin-6(5H)-one], the pIC50 is 5.30 to 6.00.
Next, `Cc1ccc(O[C@H]2C[C@H](Nc3nc(C)c4c(n3)N(C)[C@@H](C)C(=O)N4)C2)cc1` [Compound 339, (7S)-4,7,8-trimethyl-2-((trans-3-(p-tolyloxy)cyclobutyl)amino)-7,8-dihydropteridin-6(5H)-one]: 6.00 to 6.52; `Cc1nc(N[C@H]2C[C@H](Oc3ccc(C(F)(F)F)cc3)C2)nc2c1NC(=O)[C@H](C)N2C` [Compound 340, (7S)-4,7,8-trimethyl-2-((trans-3-(4-(trifluoromethyl)phenoxy)cyclobutyl)amino)-7,8-dihydropteridin-6(5H)-one]: over 6.52; `Cc1nc(N[C@H]2C[C@H](Oc3ccc(C(F)(F)F)cc3)C2)nc2c1N(C)C(=O)[C@H](C)N2C` [Compound 341, (7S)-4,5,7,8-tetramethyl-2-((trans-3-(4-(trifluoromethyl)phenoxy)-cyclobutyl)-amino)-7,8-dihydropteridin-6(5H)-one]: over 6.52.
Turning to `COc1ccc(O[C@H]2C[C@H](Nc3nc(C)c4c(n3)N(C)[C@@H](C)C(=O)N4)C2)cc1` [Compound 342, (7S)-2-((trans-3-(4-methoxyphenoxy)cyclobutyl)amino)-4,7,8-trimethyl-7,8-dihydropteridin-6(5H)-one], the pIC50 is 5.30 to 6.00.
Next, `COc1ccc(O[C@H]2C[C@H](Nc3nc(C)c4c(n3)N(C)[C@@H](C)C(=O)N4C)C2)cc1` [Compound 343, (7S)-2-((trans-3-(4-methoxyphenoxy)cyclobutyl)amino)-4,5,7,8-tetramethyl-7,8-dihydropteridin-6(5H)-one]: at most 5.30.
Next, `COc1cc(F)ccc1O[C@H]1C[C@H](Nc2nc(C)c3c(n2)N(C)[C@@H](C)C(=O)N3)C1` [Compound 344, (7S)-2-((trans-3-(4-fluoro-2-methoxyphenoxy)cyclobutyl)amino)-4,7,8-trimethyl-7,8-dihydropteridin-6(5H)-one]: 6.00 to 6.52; `COc1cc(F)ccc1O[C@H]1C[C@H](Nc2nc(C)c3c(n2)N(C)[C@@H](C)C(=O)N3C)C1` [Compound 345, (7S)-2-((trans-3-(4-fluoro-2-methoxyphenoxy)cyclobutyl)amino)-4,5,7,8-tetramethyl-7,8-dihydropteridin-6(5H)-one]: 6.00 to 6.52.
Next, `Cc1nc(N[C@H]2C[C@H](Oc3ccc(OCC(F)(F)F)nc3)C2)nc2c1N(C)C(=O)[C@H](C)N2C` [Compound 346, (7S)-4,5,7,8-tetramethyl-2-((trans-3-((6-(2,2,2-trifluoroethoxy)pyridin-3-yl)oxy)cyclobutyl)amino)-7,8-dihydropteridin-6(5H)-one]: 6.00 to 6.52; `Cc1nc(N[C@H]2C[C@H](Oc3ccc(OCC(F)(F)F)nc3)C2)nc2c1NC(=O)[C@H](C)N2C` [Compound 347, (7S)-4,7,8-trimethyl-2-((trans-3-((6-(2,2,2-trifluoroethoxy)pyridin-3-yl)oxy)cyclobutyl)amino)-7,8-dihydropteridin-6(5H)-one]: over 6.52; `Cc1nc(N[C@H]2C[C@@H](Sc3ccc(OC(F)(F)F)cc3)C2)nc2c1N(C)C(=O)[C@H](C)N2C` [Compound 348, (7S)-4,5,7,8-tetramethyl-2-((cis-3-((4-(trifluoromethoxy)phenyl)thio)cyclobutyl)amino)-7,8-dihydropteridin-6(5H)-one]: 5.30 to 6.00.
As to `Cc1nc(N[C@H]2C[C@H](Oc3cc(F)c(O)c(F)c3)C2)nc2c1NC(=O)[C@H](C)N2C` [Compound 349, (7S)-2-((trans-3-(3,5-difluoro-4-hydroxyphenoxy)cyclobutyl)amino)-4,7,8-trimethyl-7,8-dihydropteridin-6(5H)-one], the pIC50 was at most 5.30.
Next, `COc1ccc(O[C@H]2C[C@H](Nc3nc(C)c4c(n3)N(C)[C@@H](C)C(=O)N4)C2)cc1F` [Compound 350, (7S)-2-((trans-3-(3-fluoro-4-methoxyphenoxy)cyclobutyl)amino)-4,7,8-trimethyl-7,8-dihydropteridin-6(5H)-one]: 6.00 to 6.52; `COc1ccc(O[C@H]2C[C@H](Nc3nc(C)c4c(n3)N(C)[C@@H](C)C(=O)N4C)C2)cc1F` [Compound 351, (7S)-2-((trans-3-(3-fluoro-4-methoxyphenoxy)cyclobutyl)amino)-4,5,7,8-tetramethyl-7,8-dihydropteridin-6(5H)-one]: 5.30 to 6.00; `COc1ccc(O[C@H]2C[C@H](Nc3nc(C)c4c(n3)N(C)[C@@H](C)C(=O)N4)C2)cc1OC` [Compound 352, (7S)-2-((trans-3-(3,4-dimethoxyphenoxy)cyclobutyl)amino)-4,7,8-trimethyl-7,8-dihydropteridin-6(5H)-one]: 5.30 to 6.00.
For the molecule `COc1ccc(O[C@H]2C[C@H](Nc3nc(C)c4c(n3)N(C)[C@@H](C)C(=O)N4C)C2)cc1OC` [Compound 353, (7S)-2-((trans-3-(3,4-dimethoxyphenoxy)cyclobutyl)amino)-4,5,7,8-tetramethyl-7,8-dihydropteridin-6(5H)-one], the negative logarithm of the IC50 (pIC50) was at most 5.30.
Take `COc1ccc(O[C@H]2C[C@H](Nc3nc(C)c4c(n3)N(C)[C@@H](C)C(=O)N4)C2)c(F)c1` [Compound 354, (7S)-2-((trans-3-(2-fluoro-4-methoxyphenoxy)cyclobutyl)amino)-4,7,8-trimethyl-7,8-dihydropteridin-6(5H)-one]: the pIC50 was 5.30 to 6.00.
The result for `COc1ccc(O[C@H]2C[C@H](Nc3nc(C)c4c(n3)N(C)[C@@H](C)C(=O)N4C)C2)c(F)c1` [Compound 355, (7S)-2-((trans-3-(2-fluoro-4-methoxyphenoxy)cyclobutyl)amino)-4,5,7,8-tetramethyl-7,8-dihydropteridin-6(5H)-one] reads 5.30 to 6.00.
The result for `Cc1nc(N[C@H]2C[C@H](Oc3ccc(F)nc3)C2)nc2c1N(C)C(=O)[C@H](C)N2C` [Compound 358, (7S)-2-((trans 3-((6-fluoropyridin-3-yl)oxy)cyclobutyl)amino)-4,5,7,8-tetramethyl-7,8-dihydropteridin-6(5H)-one] reads 5.30 to 6.00; that for `Cc1nc(N[C@H]2C[C@H](Oc3ccc(OC(F)(F)F)c(F)c3)C2)nc2c1NC(=O)[C@H](C)N2C` [Compound 359, (7S)-2-((trans-3-(3-fluoro-4-(trifluoromethoxy)phenoxy)cyclobutyl)amino)-4,7,8-trimethyl-7,8-dihydropteridin-6(5H)-one], over 6.52; that for `Cc1nc(N[C@H]2C[C@H](Oc3ccc(OC(F)(F)F)c(F)c3)C2)nc2c1N(C)C(=O)[C@H](C)N2C` [Compound 360, (7S)-2-((trans 3-(3-fluoro-4-(trifluoromethoxy)phenoxy)cyclobutyl)amino)-4,5,7,8-tetramethyl-7,8-dihydropteridin-6(5H)-one], over 6.52.
Next, `Cc1nc(N[C@H]2C[C@H](Oc3ccc(OC(F)F)nc3)C2)nc2c1NC(=O)[C@H](C)N2C` [Compound 361, (7S)-2-((trans-3-((6-(difluoromethoxy)pyridin-3-yl)oxy)cyclobutyl)amino)-4,7,8-trimethyl-7,8-dihydropteridin-6(5H)-one]: over 6.52; `Cc1nc(N[C@H]2C[C@H](Oc3ccc(OC(F)F)nc3)C2)nc2c1N(C)C(=O)[C@H](C)N2C` [Compound 362, (7S)-2-((trans-3-((6-(difluoromethoxy)pyridin-3-yl)oxy)cyclobutyl)amino)-4,5,7,8-tetramethyl-7,8-dihydropteridin-6(5H)-one]: 6.00 to 6.52.
As to `Cc1nc(N[C@H]2C[C@@H](COc3cncc(C(F)(F)F)c3)C2)nc2c1NC(=O)[C@H](C)N2C` [Compound 363, (7S)-4,7,8-trimethyl-2-((cis-3-(((5-(trifluoromethyl)pyridin-3-yl)oxy)methyl)cyclobutyl)amino)-7,8-dihydropteridin-6(5H)-one], the negative logarithm of the IC50 (pIC50) is over 6.52.
The result for `Cc1nc(N[C@H]2C[C@@H](COc3ccc(C(F)(F)F)nc3)C2)nc2c1NC(=O)[C@H](C)N2C` [Compound 364, (7S)-4,7,8-trimethyl-2-((cis-3-(((6-(trifluoromethyl)pyridin-3-yl)oxy)methyl)cyclobutyl)amino)-7,8-dihydropteridin-6(5H)-one] reads over 6.52.
Next, `Cc1cc(C(F)(F)F)cc(OC[C@H]2C[C@@H](Nc3nc(C)c4c(n3)N(C)[C@@H](C)C(=O)N4)C2)n1` [Compound 365, (7S)-4,7,8-trimethyl-2-((cis-3-(((6-methyl-4-(trifluoromethyl)pyridin-2-yl)oxy)methyl)cyclobutyl)amino)-7,8-dihydropteridin-6(5H)-one]: over 6.52.
For the molecule `Cc1nc(N[C@H]2C[C@@H](COc3cncc(Cl)c3)C2)nc2c1NC(=O)[C@H](C)N2C` [Compound 366, (7S)-2-((cis-3-(((5-chloropyridin-3-yl)oxy)methyl)cyclobutyl)amino)-4,7,8-trimethyl-7,8-dihydropteridin-6(5H)-one], the negative logarithm of the IC50 (pIC50) is over 6.52.
